Measurements from patent US12545677B2, “Compounds useful as factor XIa inhibitors” (JANSSEN PHARMACEUTICA NV, priority 2020, dated 2026).

Assays:
Assay in all cases: Human liver microsomes CYP450 cocktail inhibition assay
Type in all cases: in vitro ADME
[1] = biological target: T1, CYP3A4 (Homo sapiens, UniProt P08684); details: HLM 0.2 mg/ml, 10 mins; read-out: Calculated IC50, HLM 3A4
T1 construct: Frozen human liver microsomes (HLM) were thawed at 37° C; from tissue; host or cells: human liver microsomes
T1 sequence (P08684 whole entry): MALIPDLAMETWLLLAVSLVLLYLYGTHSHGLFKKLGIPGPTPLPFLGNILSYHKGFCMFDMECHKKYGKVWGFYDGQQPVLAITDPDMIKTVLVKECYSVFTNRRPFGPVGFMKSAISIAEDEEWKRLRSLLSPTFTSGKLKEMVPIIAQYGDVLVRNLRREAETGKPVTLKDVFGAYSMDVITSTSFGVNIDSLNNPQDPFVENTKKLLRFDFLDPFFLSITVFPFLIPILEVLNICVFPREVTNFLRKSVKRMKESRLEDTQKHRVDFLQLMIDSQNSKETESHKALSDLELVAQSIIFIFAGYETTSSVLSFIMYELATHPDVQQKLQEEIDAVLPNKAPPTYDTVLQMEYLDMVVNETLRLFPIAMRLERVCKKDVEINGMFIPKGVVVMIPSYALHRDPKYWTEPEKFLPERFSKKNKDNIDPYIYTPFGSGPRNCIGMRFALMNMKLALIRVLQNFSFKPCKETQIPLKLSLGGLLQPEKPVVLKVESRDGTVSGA
Source text: (§1) Human Liver Microsomes CYP450 Cocktail Inhibition Assay
(§2) The cocktail DDI assay was used to evaluate test compound(s) for potential to cause drug-drug interactions via inhibition of clinically important P450 isoforms (CYP1A2, 2C8, 2C9, 2C19, 2D6, and 3A4) in early discovery. Discrimination of the inhibitory potential of the test compound towards each isoform was achieved by using a cocktail of specific probe substrates which are known to be selectively metabolized to defined metabolites by the isoforms under investigation. For example, dextromethorphan is known to be demethylated exclusively by the 2D6 isoform. Co-incubation of the probe substrates in human liver microsomes (HLM) with the test compound(s) at a range of inhibitor concentrations allows calculation of IC50 values for multiple CYP isoforms simultaneously and therefore offers a higher throughput compared to a traditional single probe assay.
(§3) Methods and Procedures: Final protein concentration in the incubation was 0.2 mg/ml and incubation time was 10 mins. The final total solvent in the incubation was 0.15% DMSO and 0.8% acetonitrile. The assay was automated on a Beckman Biomek FX automated liquid handler with multi-channel pipetting tools (8-channel and 96-channel), on deck reagent cooling capabilities and integrated automated Cytomat incubator (37° C.) with plate shaking facilities (Kendro).
(§4) Test compounds were supplied as 5 mM DMSO stock solutions. 0.1 M Phosphate buffer (pH7.4) was prepared in house using Na2HPO4·12H2O and KH2PO4.
(§5) Frozen human liver microsomes (HLM) were thawed at 37° C. while agitating regularly until the whole volume was thawed, then held on ice. Based on the protein concentration of the HLM batch, the suspension was further diluted in assay buffer and the probe substrate mixture (substrate for each CYP isoform) to yield the final protein concentration of 0.2 mg/mL.
(§6) Probe substrates were prepared separately in assay buffer (phenacetin, tolbutamide, S-mephenytoin, dextromethorphan) or water (amodiaquine, midazolam). These were combined (at the appropriate conc per substrate) with HLM and assay buffer to yield the final Enzyme/Substrate mix.
(§7) The final total solvent in the incubation was 0.15% DMSO and 0.8% acetonitrile. NADPH (5.27 mM) was prepared as a solution in assay buffer (Room Temp). The quenching solution containing deuterated analogues of each of the seven probe substrate metabolites was dissolved at an appropriate concentration in acetonitrile.
(§8) Assay procedure: Samples for incubation were prepared by combining appropriate volumes of Enzyme/Substrate mix (80 μl) and stock solutions of test or reference inhibitors (1 μl solutions added from a dilution series). Following a pre-incubation period (typically, 10 minutes), the reaction was initiated by the addition of NADPH solution (19 μl, 5.27 mM). The samples were incubated at 37° C. for 10 mins. The incubations were quenched by the addition of 1.6 volumes of chilled quenching solution. The incubations were then centrifuged for 10 minutes at 4000 rpm at 4° C. A defined volume of the supernatant (S/N) was transferred into a separate container and diluted with water (S/N: Water=60 μL/180 μL). Each sample was injected onto a UPLC/MS system using an LC/MS method selective for the simultaneous measurement of all seven probe substrate metabolites (and associated deuterated internal standards).
(§9) Calculations and Formulas: Percentage activity was calculated as % activity=(Ri/R)*100 • where Ri and R were the metabolite to internal standard peak area ratios in the presence and absence of TC, respectively. The percentage activity data were then plotted against log (TC concentration) and a curve was fitted to the data to return the IC50 using a data reduction tool within 3DX. […]

[2] = biological target: T2, CYP2C19 (Homo sapiens, UniProt P33261); details: HLM 0.2 mg/ml, 10 mins; read-out: Calculated IC50, HLM 2C19
T2 construct: Frozen human liver microsomes (HLM) were thawed at 37° C; from tissue; host or cells: human liver microsomes
T2 sequence (P33261 whole entry): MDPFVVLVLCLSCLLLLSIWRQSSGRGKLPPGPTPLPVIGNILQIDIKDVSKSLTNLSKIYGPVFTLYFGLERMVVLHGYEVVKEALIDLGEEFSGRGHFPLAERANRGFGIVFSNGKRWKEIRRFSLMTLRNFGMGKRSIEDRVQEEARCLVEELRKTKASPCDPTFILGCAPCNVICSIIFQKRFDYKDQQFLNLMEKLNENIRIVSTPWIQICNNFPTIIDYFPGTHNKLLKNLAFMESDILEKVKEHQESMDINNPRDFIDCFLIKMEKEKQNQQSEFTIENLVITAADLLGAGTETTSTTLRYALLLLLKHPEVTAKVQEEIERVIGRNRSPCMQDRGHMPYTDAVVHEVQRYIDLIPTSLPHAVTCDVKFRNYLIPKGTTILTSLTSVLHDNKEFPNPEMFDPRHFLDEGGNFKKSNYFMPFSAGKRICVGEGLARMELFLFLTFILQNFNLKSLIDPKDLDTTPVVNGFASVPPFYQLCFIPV
Source text: as §1, §2, §3, §4, §5, §6, §7, §8, §9

[3] = biological target: T3, CYP2C9 (Homo sapiens, UniProt P11712); details: HLM 0.2 mg/ml, 10 mins; read-out: Calculated IC50, HLM 2C9
T3 construct: Frozen human liver microsomes (HLM) were thawed at 37° C; from tissue; host or cells: human liver microsomes
T3 sequence (P11712 whole entry): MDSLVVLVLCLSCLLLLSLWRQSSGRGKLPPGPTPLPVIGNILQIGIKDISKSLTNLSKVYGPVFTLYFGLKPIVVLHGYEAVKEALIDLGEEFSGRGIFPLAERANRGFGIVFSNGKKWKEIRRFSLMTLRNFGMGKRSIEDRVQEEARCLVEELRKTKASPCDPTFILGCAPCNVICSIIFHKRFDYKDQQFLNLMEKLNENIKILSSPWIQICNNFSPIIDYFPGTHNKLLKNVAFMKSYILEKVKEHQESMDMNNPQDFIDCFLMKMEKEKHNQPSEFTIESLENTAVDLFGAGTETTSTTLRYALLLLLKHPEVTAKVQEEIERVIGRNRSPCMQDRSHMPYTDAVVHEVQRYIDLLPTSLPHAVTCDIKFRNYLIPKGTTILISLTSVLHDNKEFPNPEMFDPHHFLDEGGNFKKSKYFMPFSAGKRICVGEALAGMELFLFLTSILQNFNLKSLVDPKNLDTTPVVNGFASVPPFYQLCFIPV
Source text: as §1, §2, §3, §4, §5, §6, §7, §8, §9

[4] = biological target: T4, CYP2C8 (Homo sapiens, UniProt P10632); details: HLM 0.2 mg/ml, 10 mins; read-out: Calculated IC50, HLM 2C8
T4 construct: Frozen human liver microsomes (HLM) were thawed at 37° C; from tissue; host or cells: human liver microsomes
T4 sequence (P10632 1-490): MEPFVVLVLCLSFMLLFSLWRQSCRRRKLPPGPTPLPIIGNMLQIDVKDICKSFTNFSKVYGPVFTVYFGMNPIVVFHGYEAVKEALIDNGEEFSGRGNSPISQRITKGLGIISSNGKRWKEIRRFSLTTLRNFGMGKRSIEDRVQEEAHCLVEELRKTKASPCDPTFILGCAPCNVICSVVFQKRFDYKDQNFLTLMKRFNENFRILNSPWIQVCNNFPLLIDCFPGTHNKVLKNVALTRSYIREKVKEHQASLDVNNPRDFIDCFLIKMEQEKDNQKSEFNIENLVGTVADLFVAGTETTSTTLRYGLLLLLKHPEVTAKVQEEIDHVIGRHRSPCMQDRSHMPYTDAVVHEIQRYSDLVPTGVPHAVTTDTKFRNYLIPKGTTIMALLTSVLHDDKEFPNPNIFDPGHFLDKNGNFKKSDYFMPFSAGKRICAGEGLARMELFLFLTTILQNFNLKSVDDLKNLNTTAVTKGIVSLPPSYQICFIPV
Source text: as §1, §2, §3, §4, §5, §6, §7, §8, §9

[5] = biological target: T5, CYP2D6 (Homo sapiens, UniProt P10635); details: HLM 0.2 mg/ml, 10 mins; read-out: Calculated IC50, HLM 2D6
T5 construct: Frozen human liver microsomes (HLM) were thawed at 37° C; from tissue; host or cells: human liver microsomes
T5 sequence (P10635 whole entry): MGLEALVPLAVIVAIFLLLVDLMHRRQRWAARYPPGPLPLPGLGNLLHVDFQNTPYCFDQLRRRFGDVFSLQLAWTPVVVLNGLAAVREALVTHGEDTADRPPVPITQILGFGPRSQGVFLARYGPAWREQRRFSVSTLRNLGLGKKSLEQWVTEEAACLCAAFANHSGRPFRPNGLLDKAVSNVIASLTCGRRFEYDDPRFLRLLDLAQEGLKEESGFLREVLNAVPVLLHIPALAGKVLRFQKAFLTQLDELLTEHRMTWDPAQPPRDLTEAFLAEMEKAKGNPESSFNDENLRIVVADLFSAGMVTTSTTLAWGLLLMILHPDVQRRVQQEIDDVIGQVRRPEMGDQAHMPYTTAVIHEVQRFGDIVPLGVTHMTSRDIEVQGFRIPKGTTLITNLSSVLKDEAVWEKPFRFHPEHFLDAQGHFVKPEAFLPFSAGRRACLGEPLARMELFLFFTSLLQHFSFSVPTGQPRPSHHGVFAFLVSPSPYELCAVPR
Source text: as §1, §2, §3, §4, §5, §6, §7, §8, §9

[6] = biological target: T6, CYP1A2 (Homo sapiens, UniProt P05177); details: HLM 0.2 mg/ml, 10 mins; read-out: Calculated IC50, HLM 1A2
T6 construct: Frozen human liver microsomes (HLM) were thawed at 37° C; from tissue; host or cells: human liver microsomes
T6 sequence (P05177 1-516): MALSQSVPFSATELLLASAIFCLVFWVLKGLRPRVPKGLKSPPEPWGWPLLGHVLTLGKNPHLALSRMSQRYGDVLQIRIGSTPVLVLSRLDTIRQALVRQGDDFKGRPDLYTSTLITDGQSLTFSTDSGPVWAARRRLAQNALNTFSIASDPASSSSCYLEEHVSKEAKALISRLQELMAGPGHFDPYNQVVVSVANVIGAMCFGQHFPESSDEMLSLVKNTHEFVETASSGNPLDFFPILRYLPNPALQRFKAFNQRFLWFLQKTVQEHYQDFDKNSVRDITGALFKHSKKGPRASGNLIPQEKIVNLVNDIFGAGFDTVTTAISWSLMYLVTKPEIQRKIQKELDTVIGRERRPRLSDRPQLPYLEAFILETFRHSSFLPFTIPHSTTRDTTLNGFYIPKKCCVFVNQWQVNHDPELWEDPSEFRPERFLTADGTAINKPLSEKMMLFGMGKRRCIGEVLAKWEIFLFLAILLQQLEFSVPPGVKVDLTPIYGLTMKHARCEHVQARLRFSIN
Source text: as §1, §2, §3, §4, §5, §6, §7, §8, §9

With `O=C1C=C(c2c(-n3cnnn3)ccc(Cl)c2F)C[C@H]2CC[C@@H](c3ncc(-c4ccnc(CO)c4F)[nH]3)N12` [Compound of formula (I-A), (3S,8aR)-7-(3-Chloro-2-fluoro-6-(1H-tetrazol-1-yl)phenyl)-3-(5-(3-fluoro-2-(hydroxymethyl)pyridin-4-yl)-1H-imidazol-2-yl)-2,3,8,8a-tetrahydroindolizin-5(1H)-one] the IC50 [1] was 14.4 µM, the IC50 [2] was greater than 20 µM and the IC50 [3] was greater than 20 µM. The IC50 [4] was greater than 20 µM, the IC50 [5] was greater than 20 µM and the IC50 [6] was greater than 20 µM.
